# According to ChEMBL document CHEMBL1201862, “PubChem BioAssay data set” (2004):
# The source made the active and inactive calls.
# Experiments:
# Leucine aminopeptidase = target: T1, Leucine aminopeptidase (Plasmodium falciparum 3D7, UniProt Q8IL11); assay: P. falciparum M17LAP inhibitors, primary screen, biochemical, fluorogenic H-Leu-NHMec substrate, 1536-well (AID 1619); format: functional
# T1 sequence (Q8IL11 whole entry): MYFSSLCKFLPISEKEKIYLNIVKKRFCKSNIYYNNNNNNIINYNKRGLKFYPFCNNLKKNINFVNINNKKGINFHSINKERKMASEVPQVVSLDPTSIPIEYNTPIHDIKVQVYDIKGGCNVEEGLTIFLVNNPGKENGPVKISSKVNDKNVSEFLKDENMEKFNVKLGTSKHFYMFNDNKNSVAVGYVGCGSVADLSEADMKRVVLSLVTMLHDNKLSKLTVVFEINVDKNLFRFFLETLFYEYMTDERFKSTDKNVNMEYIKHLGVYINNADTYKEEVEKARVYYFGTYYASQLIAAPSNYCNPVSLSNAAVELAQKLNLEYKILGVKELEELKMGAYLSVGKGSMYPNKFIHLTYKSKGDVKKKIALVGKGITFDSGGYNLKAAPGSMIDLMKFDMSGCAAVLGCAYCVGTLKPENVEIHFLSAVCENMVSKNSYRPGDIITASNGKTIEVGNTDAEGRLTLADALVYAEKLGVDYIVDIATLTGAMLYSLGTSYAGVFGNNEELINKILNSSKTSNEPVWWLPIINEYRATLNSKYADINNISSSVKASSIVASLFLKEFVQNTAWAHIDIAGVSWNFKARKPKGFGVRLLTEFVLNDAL
# Large T antigen = Large T antigen (Simian virus 40, UniProt P03070); format: functional, Betapolyomavirus macacae;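 note: Confirmatory-stage PubChem screen for compounds that inhibit SV40 T antigen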
# Sequence of Large T antigen (P03070 whole entry): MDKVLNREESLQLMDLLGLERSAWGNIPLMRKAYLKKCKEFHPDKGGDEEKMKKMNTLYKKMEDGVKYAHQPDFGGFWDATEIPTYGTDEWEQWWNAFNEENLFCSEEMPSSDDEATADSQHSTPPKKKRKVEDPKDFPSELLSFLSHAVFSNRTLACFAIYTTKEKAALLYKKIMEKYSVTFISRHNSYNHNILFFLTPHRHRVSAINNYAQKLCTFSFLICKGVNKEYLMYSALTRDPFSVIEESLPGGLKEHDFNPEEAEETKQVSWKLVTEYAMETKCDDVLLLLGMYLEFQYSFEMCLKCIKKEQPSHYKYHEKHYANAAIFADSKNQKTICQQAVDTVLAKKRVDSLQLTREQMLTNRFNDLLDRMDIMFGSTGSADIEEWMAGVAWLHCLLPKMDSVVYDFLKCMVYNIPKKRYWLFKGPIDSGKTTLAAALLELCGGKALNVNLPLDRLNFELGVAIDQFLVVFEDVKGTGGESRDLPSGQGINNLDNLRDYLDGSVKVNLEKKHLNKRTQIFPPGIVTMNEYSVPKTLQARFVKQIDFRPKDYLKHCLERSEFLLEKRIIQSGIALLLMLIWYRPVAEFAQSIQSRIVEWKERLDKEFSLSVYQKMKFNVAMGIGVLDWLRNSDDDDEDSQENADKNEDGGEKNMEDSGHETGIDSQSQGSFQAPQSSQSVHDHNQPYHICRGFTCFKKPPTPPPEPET
# [1] = target: DNA dC->dU-editing enzyme APOBEC-3A (Homo sapiens, UniProt P31941); assay: APOBEC3A DNA deaminase inhibitors, dose response, biochemical (AID 504722); format: functional
# Sequence of DNA dC->dU-editing enzyme APOBEC-3A (P31941 whole entry): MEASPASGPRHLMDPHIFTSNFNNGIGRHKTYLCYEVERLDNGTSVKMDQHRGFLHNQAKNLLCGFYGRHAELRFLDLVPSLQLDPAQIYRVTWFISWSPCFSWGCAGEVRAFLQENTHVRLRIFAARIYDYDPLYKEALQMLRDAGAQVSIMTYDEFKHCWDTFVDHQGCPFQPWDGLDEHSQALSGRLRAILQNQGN
# [2] = target: DNA dC->dU-editing enzyme APOBEC-3G (Homo sapiens, UniProt Q9HC16); assay: Dose Response confirmation of small molecule APOBEC3G DNA Deaminase Inhibitors via a fluorescence-based single-stranded DNA deaminase assay. [Related pubchem assays (depositor defined):AID493012, AID493028]; format: functional
# Sequence of DNA dC->dU-editing enzyme APOBEC-3G (Q9HC16 whole entry): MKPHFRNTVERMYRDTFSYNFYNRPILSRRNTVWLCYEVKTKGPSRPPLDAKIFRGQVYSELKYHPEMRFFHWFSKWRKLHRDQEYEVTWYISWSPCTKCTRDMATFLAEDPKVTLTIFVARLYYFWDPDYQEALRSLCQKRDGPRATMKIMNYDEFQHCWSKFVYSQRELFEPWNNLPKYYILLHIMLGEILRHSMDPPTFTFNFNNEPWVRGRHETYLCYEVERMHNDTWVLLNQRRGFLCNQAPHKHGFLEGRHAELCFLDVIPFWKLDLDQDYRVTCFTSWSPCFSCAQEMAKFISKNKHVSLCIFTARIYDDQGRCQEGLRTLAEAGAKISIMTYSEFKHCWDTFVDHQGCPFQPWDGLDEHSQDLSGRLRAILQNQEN
# [3] = target: Heat shock protein HSP 90-alpha (Homo sapiens, UniProt P07900); format: functional, organism-based
# [4] = microbe, parasite or virus in culture; format: functional; conditions: Mycobacterium tuberculosis
# [5] = Vero E6 cell cytotoxicity, dose response, cytotoxicity control for non-replicating M. tuberculosis project, secondary assay (AID 492998); format: functional, VeroE6; conditions: Vero C1008
# cells = format: functional
# Genome polyprotein = Genome polyprotein (dengue virus type 2, UniProt P29990); assay: Dengue-2 NS5 methyltransferase inhibitors, primary screen, biochemical, confirmation dose response (AID 588689); format: functional
# Sequence of Genome polyprotein (P29990 2492-3391 limits assumed): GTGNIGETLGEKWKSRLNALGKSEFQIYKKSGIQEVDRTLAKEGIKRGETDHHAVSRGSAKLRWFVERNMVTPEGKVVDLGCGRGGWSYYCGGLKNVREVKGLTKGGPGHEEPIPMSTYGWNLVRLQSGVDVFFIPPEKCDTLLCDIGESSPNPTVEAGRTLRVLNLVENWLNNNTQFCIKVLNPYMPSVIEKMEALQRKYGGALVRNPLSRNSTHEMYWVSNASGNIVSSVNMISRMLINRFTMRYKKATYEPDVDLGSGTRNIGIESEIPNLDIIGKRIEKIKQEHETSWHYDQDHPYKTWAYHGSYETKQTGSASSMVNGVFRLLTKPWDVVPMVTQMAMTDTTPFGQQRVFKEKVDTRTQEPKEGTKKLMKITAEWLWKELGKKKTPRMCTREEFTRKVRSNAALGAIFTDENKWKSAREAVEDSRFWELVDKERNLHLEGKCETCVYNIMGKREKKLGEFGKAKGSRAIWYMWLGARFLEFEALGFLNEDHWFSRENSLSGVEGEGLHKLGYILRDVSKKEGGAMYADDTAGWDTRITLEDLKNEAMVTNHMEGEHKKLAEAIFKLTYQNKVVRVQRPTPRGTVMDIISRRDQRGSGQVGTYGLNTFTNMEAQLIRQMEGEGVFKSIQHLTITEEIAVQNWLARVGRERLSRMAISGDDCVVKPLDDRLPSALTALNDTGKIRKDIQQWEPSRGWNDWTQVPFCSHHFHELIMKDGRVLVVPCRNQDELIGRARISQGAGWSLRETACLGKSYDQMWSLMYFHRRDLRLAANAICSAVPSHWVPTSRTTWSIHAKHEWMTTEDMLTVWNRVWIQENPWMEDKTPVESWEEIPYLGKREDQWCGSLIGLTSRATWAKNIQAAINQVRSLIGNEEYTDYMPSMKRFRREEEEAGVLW
# [6] = target: Beta-2 adrenergic receptor (Homo sapiens, UniProt P07550); assay: beta2AR agonists driving receptor internalization, dose response, cell-based, FAP fluorogen, flow cytometry, cherry pick 1 (AID 588763); format: functional
# Sequence of Beta-2 adrenergic receptor (P07550 whole entry): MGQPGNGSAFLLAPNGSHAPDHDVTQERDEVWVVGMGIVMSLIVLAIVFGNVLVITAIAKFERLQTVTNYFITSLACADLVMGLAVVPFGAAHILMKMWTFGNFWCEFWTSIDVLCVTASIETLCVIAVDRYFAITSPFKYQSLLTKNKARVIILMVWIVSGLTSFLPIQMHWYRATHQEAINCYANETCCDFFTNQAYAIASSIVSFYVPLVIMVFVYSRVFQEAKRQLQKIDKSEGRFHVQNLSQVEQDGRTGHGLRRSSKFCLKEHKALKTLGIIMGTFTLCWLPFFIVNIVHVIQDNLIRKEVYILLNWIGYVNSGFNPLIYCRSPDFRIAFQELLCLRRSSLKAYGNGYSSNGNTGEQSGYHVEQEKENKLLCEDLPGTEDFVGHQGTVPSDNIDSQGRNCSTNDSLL
# Aminopeptidase N = target: T2, Aminopeptidase N (Plasmodium falciparum FcB1/Columbia, UniProt O96935); assay: P. falciparum M1AAP inhibitors, biochemical, fluorogenic H-Leu-NHMec substrate, 1536-well (AID 1445); design: species or system Plasmodium falciparum 3D7, 3D7
# T2 sequence (O96935 whole entry): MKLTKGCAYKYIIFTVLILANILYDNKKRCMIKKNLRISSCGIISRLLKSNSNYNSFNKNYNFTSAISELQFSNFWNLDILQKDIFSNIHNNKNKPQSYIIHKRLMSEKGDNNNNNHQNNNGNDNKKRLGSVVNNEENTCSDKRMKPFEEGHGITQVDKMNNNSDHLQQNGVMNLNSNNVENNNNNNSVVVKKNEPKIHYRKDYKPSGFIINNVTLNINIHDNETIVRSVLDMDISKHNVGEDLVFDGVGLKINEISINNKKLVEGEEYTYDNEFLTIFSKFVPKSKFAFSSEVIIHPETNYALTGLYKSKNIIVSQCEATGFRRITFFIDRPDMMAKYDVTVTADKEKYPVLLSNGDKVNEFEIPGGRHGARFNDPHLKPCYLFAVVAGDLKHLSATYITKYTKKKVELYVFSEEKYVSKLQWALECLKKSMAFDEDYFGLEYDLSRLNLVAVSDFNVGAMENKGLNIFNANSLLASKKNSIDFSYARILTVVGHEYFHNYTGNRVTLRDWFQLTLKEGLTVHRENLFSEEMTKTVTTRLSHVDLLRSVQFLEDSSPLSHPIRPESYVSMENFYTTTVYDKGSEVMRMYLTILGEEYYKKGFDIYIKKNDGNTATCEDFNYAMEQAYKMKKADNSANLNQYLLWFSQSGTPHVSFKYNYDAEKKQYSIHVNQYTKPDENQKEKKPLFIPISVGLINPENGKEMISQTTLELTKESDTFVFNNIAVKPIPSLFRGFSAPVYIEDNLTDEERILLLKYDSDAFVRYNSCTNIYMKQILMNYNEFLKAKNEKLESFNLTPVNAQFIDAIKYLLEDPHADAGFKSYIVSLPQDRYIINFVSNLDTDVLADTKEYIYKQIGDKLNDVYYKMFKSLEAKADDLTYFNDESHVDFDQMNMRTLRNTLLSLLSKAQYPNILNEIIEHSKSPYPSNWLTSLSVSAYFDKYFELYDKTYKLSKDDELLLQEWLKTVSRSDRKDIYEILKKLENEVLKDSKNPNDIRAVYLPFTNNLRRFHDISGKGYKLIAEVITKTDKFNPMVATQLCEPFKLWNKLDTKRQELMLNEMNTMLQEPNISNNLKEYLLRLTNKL
# [7] = target: T3, Short transient receptor potential channel 4 (Mus musculus, UniProt Q9QUQ5); assay: mouse TRPC4 channel activators, dose response, cell-based, HEK293 TRPC4/mu-opioid, Fluo-4 calcium (AID 434937); format: functional
# T3 sequence (Q9QUQ5 whole entry): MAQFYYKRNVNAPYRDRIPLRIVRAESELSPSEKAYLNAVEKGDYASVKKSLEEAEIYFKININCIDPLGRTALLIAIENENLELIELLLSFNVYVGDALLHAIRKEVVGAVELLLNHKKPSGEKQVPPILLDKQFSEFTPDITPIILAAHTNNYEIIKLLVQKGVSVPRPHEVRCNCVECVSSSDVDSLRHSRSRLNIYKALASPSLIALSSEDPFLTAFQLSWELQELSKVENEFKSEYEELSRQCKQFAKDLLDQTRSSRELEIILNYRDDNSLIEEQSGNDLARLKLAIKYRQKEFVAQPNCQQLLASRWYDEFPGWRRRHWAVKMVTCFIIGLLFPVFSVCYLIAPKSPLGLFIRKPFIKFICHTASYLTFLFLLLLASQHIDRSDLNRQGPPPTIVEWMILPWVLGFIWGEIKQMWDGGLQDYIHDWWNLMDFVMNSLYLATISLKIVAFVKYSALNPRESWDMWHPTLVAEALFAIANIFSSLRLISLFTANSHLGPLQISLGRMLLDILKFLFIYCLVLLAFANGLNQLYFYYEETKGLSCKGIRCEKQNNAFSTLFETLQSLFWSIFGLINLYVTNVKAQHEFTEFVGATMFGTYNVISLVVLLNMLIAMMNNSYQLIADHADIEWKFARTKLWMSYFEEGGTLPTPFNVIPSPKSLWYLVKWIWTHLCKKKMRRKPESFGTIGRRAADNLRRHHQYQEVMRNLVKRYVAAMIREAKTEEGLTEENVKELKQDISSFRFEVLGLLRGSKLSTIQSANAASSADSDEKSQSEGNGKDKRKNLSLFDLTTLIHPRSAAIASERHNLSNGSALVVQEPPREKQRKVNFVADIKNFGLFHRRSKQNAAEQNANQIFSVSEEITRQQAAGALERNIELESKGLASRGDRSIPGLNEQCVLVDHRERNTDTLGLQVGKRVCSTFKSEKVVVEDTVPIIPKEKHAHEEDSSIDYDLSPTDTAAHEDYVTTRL
# [8] = THP-1 cell cytotoxicity, dose response, cytotoxicity control for non-replicating M. tuberculosis project (AID 489025); format: functional
# [9] = cytotoxicity in HEK-293T cells, dose response, cytotoxicity control for TCR NF-kB inhibitor project, luminescence, T-cell screen hits (AID 489026); format: functional, cell-based;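 note: cells exposed to compound about 14 hours before the viability readout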
# [10] = Luminescence Cell-Based Dose Retest to Confirm Inhibitors of Cancer Stem Cells. [Related pubchem assays (depositor defined):AID2717, AID2721]; format: functional; conditions: Homo sapiens
# [11] = target: T4, Ubiquitin-conjugating enzyme E2 N (Homo sapiens, UniProt P61088); format: functional;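 note: Dose-response confirmation in a TR-FRET assay detecting UBC13-driven polyubiquitin chain formation, inhibition measured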
# T4 sequence (P61088 whole entry): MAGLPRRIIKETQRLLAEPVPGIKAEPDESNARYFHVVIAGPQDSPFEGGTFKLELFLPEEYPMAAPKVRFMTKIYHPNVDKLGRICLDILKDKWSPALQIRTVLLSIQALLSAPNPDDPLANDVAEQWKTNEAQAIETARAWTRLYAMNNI
# [12] = target: T5, Rac GTPase-activating protein 1 (Homo sapiens, UniProt Q9H0H5); assay: MgcRacGAP GTPase-activating activity inhibitors, confirmation, biochemical, ADP Hunter fluorescence, primary and confirmatory (AID 624330); format: functional
# T5 sequence (Q9H0H5 whole entry): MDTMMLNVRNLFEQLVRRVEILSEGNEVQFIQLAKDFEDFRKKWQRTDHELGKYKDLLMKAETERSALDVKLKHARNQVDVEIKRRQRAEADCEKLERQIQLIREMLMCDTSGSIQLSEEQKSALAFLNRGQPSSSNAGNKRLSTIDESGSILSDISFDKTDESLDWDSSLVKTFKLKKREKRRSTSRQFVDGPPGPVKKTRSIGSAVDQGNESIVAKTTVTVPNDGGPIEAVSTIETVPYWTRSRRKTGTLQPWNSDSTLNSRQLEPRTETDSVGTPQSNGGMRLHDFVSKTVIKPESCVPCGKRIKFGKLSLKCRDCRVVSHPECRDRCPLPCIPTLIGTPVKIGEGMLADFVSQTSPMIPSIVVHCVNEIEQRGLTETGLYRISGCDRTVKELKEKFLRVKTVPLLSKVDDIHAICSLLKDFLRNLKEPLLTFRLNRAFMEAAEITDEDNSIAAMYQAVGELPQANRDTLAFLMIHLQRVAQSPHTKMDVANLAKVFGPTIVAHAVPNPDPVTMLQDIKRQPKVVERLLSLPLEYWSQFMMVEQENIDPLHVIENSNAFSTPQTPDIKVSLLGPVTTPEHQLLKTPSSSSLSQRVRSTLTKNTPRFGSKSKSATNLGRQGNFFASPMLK
smiles,measurement,setting,value
Oc1ccc(-c2n[nH]c(=S)[nH]2)cc1,IC50,Leucine aminopeptidase,20.6 µM (active)
same,IC50,Large T antigen,6.95 µM (active)
same,IC50,[1],> 100 µM (inactive)
same,IC50,[2],4.02 µM (active)
Cc1cccc(C)c1NC(=O)COC(=O)c1ccc([N+](=O)[O-])o1,AC50,[3],2.57 µM (active)
Cc1ccc(C)c(-c2nnc(NC(=O)C3=COCCO3)o2)c1,CC50,[4],> 40 µM (active)
same,CC50,[5],19 µM (active)
same,IC50,cells,6.12 µM (active)
CN(C)c1ccc(C=C2C(=O)NC(=O)NC2=O)cc1[N+](=O)[O-],IC50,Genome polyprotein,16.3 µM (active)
Cn1c(S)nnc1-c1cc2c(C(F)(F)F)nn(C)c2s1,IC50,[1],> 100 µM (inactive)
same,IC50,[2],1.84 µM (active)
c1nc(NCCN2CCOCC2)c2sc3nc(N4CCOCC4)c4c(c3c2n1)CCC4,EC50,[6],3.34 µM (active)
Cc1ccc2c(c1)c1nnc(SCC(=O)N3CCCc4ccccc43)nc1n2CC(=O)O,IC50,Aminopeptidase N,26.8 µM (active)
O=C(c1sc2ccccc2c1Cl)N(Cc1cccs1)C1CCS(=O)(=O)C1 (stereo not given),EC50,[7],1.88 µM (active)
O=C(NCc1cccs1)C1CCN(S(=O)(=O)c2cccs2)CC1,IC50,Aminopeptidase N,51.9 µM (active)
CCOC(=O)c1sc2nc(CSc3ccccc3)nc(NCCN(C)C)c2c1C,CC50,[8],31.2 µM (active)
same,CC50,[5],17.8 µM (active)
same,IC50,cells,22.5 µM (active)
C/C=C(\C)C(=O)N[C@@H](c1ccccc1)[C@@H](O)C(=O)O[C@H]1C[C@@]2(O)[C@@H](OC(=O)c3ccccc3)C3[C@](C)(C(=O)[C@H](O)C(=C1C)C2(C)C)[C@@H](O)C[C@H]1OC[C@@]31OC(C)=O (stereo not given in full),IC50,[9],> 80 µM (inactive)
O=C(Nc1ccc(Cl)cc1Cl)c1cccc(N2C(=O)C=CC2=O)c1,IC50,[1],> 100 µM (inactive)
same,CC50,[8],> 40 µM (active)
same,IC50,[2],13.8 µM (active)
same,AC50,[3],0.295 µM (active)
CN(CC(=O)Nc1cccc(F)c1)C(=O)c1cn(-c2ccccc2)nc1-c1ccc(Cl)cc1,AC50,[10],2.93 µM (active)
same,AC50,[3],8.31 µM (active)
O=C(Nc1ccccc1)c1ccccc1CCc1ccccc1,EC50,[6],1.7 µM (active)
CSc1ccc(CNC(=O)c2ccc(NC(=O)C3=CSCCO3)cc2)cc1,EC50,[6],0.0482 µM (active)
COC(=O)c1[nH]c2ccc(F)cc2c1NS(=O)(=O)c1ccc(OC)cc1,IC50,[9],> 80 µM (inactive)
O=C(OCc1cccc([N+](=O)[O-])c1)c1cccnc1Cl,IC50,[11],> 20 µM (inactive)
COC(=O)NCC(c1ccc2c(c1)OCO2)N1CCN(c2ccc(OC)cc2)CC1 (stereo not given),EC50,[7],0.944 µM (active)
same,IC50,[12],123 µM (active)
CCc1ccc2nc(SCC(=O)Nc3ccccc3N3CCOCC3)c(C#N)cc2c1,AC50,[10],2.39 µM (active)
same,IC50,[9],> 80 µM (inactive)
Cn1cncc1C#Cc1c(-c2ccsc2)sc2ccccc12,AC50,[10],4.68 µM (active)
same,AC50,[3],7.16 µM (active)
CC[C@@H](C)[C@@H]1CN([C@@H](C)CN2CCC[C@H]2CN2C(N)=NC[C@@H]2Cc2ccccc2)C(=N)N1CCCC1CCCC1,IC50,[11],> 20 µM (inactive)
CN(C)c1ccc(/C=N/n2c(S)nnc2-c2cccnc2)cc1,IC50,[1],> 100 µM (inactive)
same,IC50,[2],2.56 µM (active)
Cc1ccsc1/C=N/n1c(S)nnc1-c1ccncc1,IC50,[1],> 100 µM (inactive)
same,IC50,[2],2.45 µM (active)
